Measured values from patent US20070128217A1 (priority 2003, published 2007).

Columns and labels:
[1] = system: recombinant human anti-SARS-CoV antibody 03-018; type: binding; design: Binding of antibody 03-018 to linear peptides of the N protein of SARS-CoV Urbani / Binding of antibody 03-018 to looped/cyclic peptides of the N protein of SARS-CoV Urbani: unit not given here
[2] = system: control sera (pooled serum of ten healthy LUMC hospital workers; commercial negative donor pooled serum from the Dutch bloodbank); type: binding, human; design: Binding of Control serum LUMC to linear peptides / Binding of Control serum Blood-bank to linear peptides / Binding of Control serum LUMC to looped peptides / Binding of Control Serum Blood-Bank to Looped peptides / Binding of Control serum LUMC to linear peptides of the protein M of SARS-CoV Urbani / Binding of Control serum Blood-bank to linear peptides of the protein M of SARS-CoV Urbani / Binding of Control serum LUMC to looped peptides of the protein M of SARS-CoV Urbani / Binding of Control Serum Blood-Bank to Looped peptides of the protein M of SARS-CoV Urbani: unit not given here
[3] = system: antibodies in sera from SARS patients (sera 1a, 1b, 2, 6, 37, 62, London, SARS-yellow, SARS-green); type: binding, human; design: Binding of serum 6 to linear peptides of protein X1 of SARS-CoV Urbani / Binding of serum 37 to linear peptides of protein X1 of SARS-CoV Urbani / Binding of serum 6 to looped/cyclic peptide (PEPSCAN-ELISA) / Binding of serum 37 to looped/cyclic peptide (PEPSCAN-ELISA) / Binding of serum 37 to looped/cyclic peptides of protein X1 of SARS-CoV Urbani / Binding of serum 6 to linear peptides of protein X2 / Binding of serum 37 to linear peptides of protein X2 / Binding of serum 37 to looped/cyclic peptides of protein X2 of SARS-CoV Urbani / Binding of serum 6 to linear peptides of protein M of SARS-CoV Urbani / Binding of serum 37 to linear peptides of protein M of SARS-CoV Urbani / Binding of serum 6 to looped/cyclic peptides of protein M of SARS-CoV Urbani / Binding of serum 37 to looped/cyclic peptides of protein M of SARS-CoV Urbani / Binding of serum 6 to linear peptides of protein X3 of SARS-CoV Urbani / Binding of serum 37 to linear peptides of protein X3 of SARS-CoV Urbani / Binding of serum 37 to looped/cyclic peptides of protein X3 of SARS-CoV Urbani / Binding of serum 6 to linear peptides of protein X4 of SARS-CoV Urbani / Binding of serum 37 to linear peptides of protein X4 of SARS-CoV Urbani / Binding of serum 37 to looped/cyclic peptides of protein X4 of SARS-CoV Urbani / Binding of serum 6 to linear peptides of protein X5 of SARS-CoV Urbani / Binding of serum 37 to linear peptides of protein X5 of SARS-CoV Urbani / Binding of serum 37 to looped/cyclic peptides of protein X5 of SARS-CoV Urbani / Binding of serum 6 to linear peptides of protein N of SARS-CoV Urbani / Binding of serum 37 to linear peptides of protein N of SARS-CoV Urbani / Binding of serum 6 to linear peptide (PEPSCAN-ELISA) / Binding of serum 1a to looped/cyclic peptides of protein N of SARS-CoV Urbani / Binding of serum 1b to looped/cyclic peptides of protein N of SARS-CoV Urbani / Binding of serum 2 to looped/cyclic peptides of protein N of SARS-CoV Urbani / Binding of serum 6 to looped/cyclic peptides of protein N of SARS-CoV Urbani / Binding of serum 37 to looped/cyclic peptides of protein N of SARS-CoV Urbani / Binding of serum 62 to looped/cyclic peptides of protein N of SARS-CoV Urbani / Binding of serum London to looped/cyclic peptides of protein N of SARS-CoV Urbani / Binding of serum SARS-green to looped/cyclic peptides of protein N of SARS-CoV Urbani: unit not given here
[4] = system: rabbit serum obtained by immunizing a rabbit with the SARS-CoV strain Frankfurt 1; type: binding; design: Binding of a rabbit serum to linear peptides / Binding of a rabbit serum to looped peptides / Rabbit serum linear peptides / Rabbit serum looped peptides / Binding of a rabbit serum to linear peptides of protein N of SARS-CoV Urbani (Rabbit serum linear peptides) / Binding of a rabbit serum to looped/cyclic peptides of protein N of SARS-CoV Urbani (Rabbit serum looped peptides): unit not given here

Sequence	Binding of antibody 03-018 to linear peptides of the N protein of SARS-CoV Urbani [1]	Binding of antibody 03-018 to looped/cyclic peptides of the N protein of SARS-CoV Urbani [1]	Binding of Control Serum Blood-Bank to Looped peptides [2]	Binding of Control serum Blood-bank to linear peptides [2]	Binding of Control serum LUMC to linear peptides [2]	Binding of Control serum LUMC to looped peptides [2]	Binding of serum 1a to linear peptides of protein N of SARS-CoV Urbani [3]	Binding of serum 1a to looped/cyclic peptides of protein N of SARS-CoV Urbani [3]	Binding of serum 1b to linear peptides of protein N of SARS-CoV Urbani [3]	Binding of serum 1b to looped/cyclic peptides of protein N of SARS-CoV Urbani [3]	Binding of serum 2 to linear peptides of protein N of SARS-CoV Urbani [3]	Binding of serum 2 to looped/cyclic peptides of protein N of SARS-CoV Urbani [3]	Binding of serum 6 to linear peptides of protein N of SARS-CoV Urbani [3]	Binding of serum 6 to looped/cyclic peptides of protein N of SARS-CoV Urbani [3]	Binding of serum 37 to linear peptides of protein N of SARS-CoV Urbani [3]	Binding of serum 37 to looped/cyclic peptides of protein N of SARS-CoV Urbani [3]	Binding of serum 62 to linear peptides of protein N of SARS-CoV Urbani [3]	Binding of serum 62 to looped/cyclic peptides of protein N of SARS-CoV Urbani [3]	Binding of serum London to linear peptides of protein N of SARS-CoV Urbani [3]	Binding of serum London to looped/cyclic peptides of protein N of SARS-CoV Urbani [3]	other results
NNNAATVLQLPQGTT	0.1	0.3	0.7	0.8	0.7	0.8	0.2	0.4	0.1	0.3	0.2	0.5	0.1	0.2	0.7	0.6	0.5	0.5	0.5	0.5	Binding of serum SARS-green to linear peptides of protein N of SARS-CoV Urbani [3]: 0.4; Binding of serum SARS-green to looped/cyclic peptides of protein N of SARS-CoV Urbani [3]: 0.5; Binding of serum SARS-yellow to linear peptides of protein N of SARS-CoV Urbani [3]: 0.7; Binding of serum SARS-yellow to looped/cyclic peptides of protein N of SARS-CoV Urbani [3]: 0.4; Binding of a rabbit serum to linear peptides of protein N of SARS-CoV Urbani (Rabbit serum linear peptides) [4]: 0.1; Binding of a rabbit serum to looped/cyclic peptides of protein N of SARS-CoV Urbani (Rabbit serum looped peptides) [4]: 0.4
NNQNGGRNGARPKQR	0.2	0.2	0.5	0.9	0.8	0.6	0.2	0.2	0.2	0.1	0.2	0.2	0.3	0.2	0.7	0.4	0.8	0.3	0.5	0.3	Binding of serum SARS-green to linear peptides of protein N of SARS-CoV Urbani [3]: 0.5; Binding of serum SARS-green to looped/cyclic peptides of protein N of SARS-CoV Urbani [3]: 0.1; Binding of serum SARS-yellow to linear peptides of protein N of SARS-CoV Urbani [3]: 0.6; Binding of serum SARS-yellow to looped/cyclic peptides of protein N of SARS-CoV Urbani [3]: 0.3; Binding of a rabbit serum to linear peptides of protein N of SARS-CoV Urbani (Rabbit serum linear peptides) [4]: 0.3; Binding of a rabbit serum to looped/cyclic peptides of protein N of SARS-CoV Urbani (Rabbit serum looped peptides) [4]: 0.7
NNTASWFTALTQHGK	0.1	0.2	0.5	0.6	0.7	0.4	0.2	0.2	0.1	0.1	0.2	0.2	0.1	0.1	0.7	0.4	0.6	0.2	0.4	0.2	Binding of serum SARS-green to linear peptides of protein N of SARS-CoV Urbani [3]: 0.4; Binding of serum SARS-green to looped/cyclic peptides of protein N of SARS-CoV Urbani [3]: 0.1; Binding of serum SARS-yellow to linear peptides of protein N of SARS-CoV Urbani [3]: 0.5; Binding of serum SARS-yellow to looped/cyclic peptides of protein N of SARS-CoV Urbani [3]: 0.1; Binding of a rabbit serum to linear peptides of protein N of SARS-CoV Urbani (Rabbit serum linear peptides) [4]: 0.1; Binding of a rabbit serum to looped/cyclic peptides of protein N of SARS-CoV Urbani (Rabbit serum looped peptides) [4]: 0.3
